The record followed here is paper PMC3103057 (Journal of medicinal chemistry, 2011).

Structures are written as SMILES.

The test system of assay [1] is wildtype and homozygous mutant N370S GC fibroblasts. Nature of the assay: Chaperone activity: translocation of GC to the lysosome in fibroblasts. In kind it is cell-based, human. The following applies: for lysosomal GC protein after treatment: 10 uM, wildtype and N370S GC fibroblasts, GC and LAMP1 antibody staining; for amount of GC localized to the lysosome: 1 nM to 25 uM, five days incubation, wildtype and mutant fibroblasts.

In assay [2] the target is T1, N370S glucocerebrosidase (GC) in tissue homogenate (Homo sapiens, UniProt P04062, N409S).
T1 sequence (P04062 40-536 N409S): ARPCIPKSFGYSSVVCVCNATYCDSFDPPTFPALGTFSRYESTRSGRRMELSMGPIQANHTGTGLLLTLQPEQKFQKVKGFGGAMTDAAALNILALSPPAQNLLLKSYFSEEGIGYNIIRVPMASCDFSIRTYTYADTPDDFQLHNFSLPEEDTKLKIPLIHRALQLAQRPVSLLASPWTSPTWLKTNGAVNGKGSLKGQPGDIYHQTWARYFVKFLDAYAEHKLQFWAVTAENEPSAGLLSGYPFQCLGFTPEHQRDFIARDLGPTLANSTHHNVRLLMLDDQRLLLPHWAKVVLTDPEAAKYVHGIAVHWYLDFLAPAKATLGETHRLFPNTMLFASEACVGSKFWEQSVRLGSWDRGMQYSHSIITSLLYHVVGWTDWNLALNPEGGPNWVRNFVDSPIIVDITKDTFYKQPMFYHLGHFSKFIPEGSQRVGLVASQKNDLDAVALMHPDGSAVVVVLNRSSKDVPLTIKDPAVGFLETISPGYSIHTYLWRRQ
In kind it is biochemical. As to conditions: for reduction of activity (fold, relative to 26ad): N370S tissue homogenate AC50 compared with parent quinazoline 26ad.

The test system of assay [3] is purified GC. The assay can be described thus: Purified enzyme assays of GC activity without exogenous cofactors. In kind it is biochemical. The following applies: no exogenous activating cofactors.

In the case of `OC[C@H]1CNC[C@@H](O)[C@@H]1O` [Isofagomine, reference compound], the “lysosomal GC protein after treatment” value in assay [1] was “increased lysosomal GC protein”.
Regarding `Cc1ccc(S(=O)(=O)N2CCN(c3ccnc(-c4cccs4)n3)CC2)cc1` [Compound 74, 2-(thiophen-2-yl)-4-(4-tosylpiperazin-1-yl)pyrimidine], the “reduction of activity (fold, relative to 26ad)” value in assay [2] was determined as 32 times.
As to `O=S(=O)(c1ccc2c(c1)OCCO2)N1CCN(c2nc(-c3cccs3)nc3ccccc23)CC1` [Compound 26bs, 4-(4-(2,3-dihydrobenzo[b][1,4]dioxin-6-ylsulfonyl)piperazin-1-yl)-2-(thiophen-2-yl)quinazoline], the “amount of GC localized to the lysosome” value in assay [1] was “clear increase of the amount of GC localized to the lysosome”.
Consider `Cc1ccc(S(=O)(=O)N2CCN(c3nc(-c4cccs4)nc4ccccc34)CC2)cc1` [Compound 26ad, 4-(4-(4-methylphenylsulfonyl)piperazin-1-yl)-2-(thiophen-2-yl)quinazoline], for which inhibition in assay [2] ("blue" GC enzyme assay, tissue homogenate) was half-maximal at 320 nM (IC50). Also, the “amount of GC localized to the lysosome” value in assay [1] is given as “clear increase of the amount of GC localized to the lysosome”.
Turning to `Cc1ccc(S(=O)(=O)N2CCN(c3nc(-c4cccs4)nc4cccnc34)CC2)cc1` [Compound 72, 2-(thiophen-2-yl)-4-(4-tosylpiperazin-1-yl)pyrido[3,2-d]pyrimidine], the “reduction of activity (fold, relative to 26ad)” value in assay [2] is reported as “at least 10 times”.
In the case of `O=S(=O)(c1ccc(Cl)cc1)N1CCN(c2nc(-c3cccs3)nc3ccccc23)CC1` [Compound 10, 4-(4-(4-chlorophenylsulfonyl)piperazin-1-yl)-2-(thiophen-2-yl)quinazoline], the “activity in purified enzyme assays of GC compared with tissue homogenate” value in assay [3] is on record as “greatly diminished”.
Turning to `Cc1ccc(S(=O)(=O)N2CCN(c3nc(-c4cccs4)nc(C)c3C)CC2)cc1` [Compound 76, 4,5-dimethyl-2-(thiophen-2-yl)-6-(4-tosylpiperazin-1-yl)pyrimidine], in assay [2], the “reduction of activity (fold, relative to 26ad)” value is given as 10 times.
With `COc1ccccc1S(=O)(=O)N1CCN(c2nc(-c3cccs3)nc3ccccc23)CC1` [Compound 26ai, 4-(4-(2-methoxyphenylsulfonyl)piperazin-1-yl)-2-(thiophen-2-yl)quinazoline], in assay [1], the “amount of GC localized to the lysosome” value is given as “clear increase of the amount of GC localized to the lysosome”.
On to `O=S(=O)(c1ccc2ccccc2c1)N1CCN(c2nc(-c3cccs3)nc3ccccc23)CC1` [Compound 14], for which, in assay [1], the “amount of GC localized to the lysosome” value is on record as “clear increase of the amount of GC localized to the lysosome” and the “lysosomal GC protein after treatment” value was “increased lysosomal GC protein”.
Take `Cc1ccc(S(=O)(=O)N2CCN(c3nc(-c4cccs4)nc4ncccc34)CC2)cc1` [Compound 73, 2-(thiophen-2-yl)-4-(4-tosylpiperazin-1-yl)pyrido[2,3-d]pyrimidine]: the “reduction of activity (fold, relative to 26ad)” value in assay [2] is “at least 10 times”.
